Key:
[1] = system: G207; assay: Effect of HU and FUdR on G207 replication in HCT8 cells; format: cell-based, herpes simplex virus (HSV) type 1
Description: FIG. 4 depicts the results of experiments showing the effects of FUdR and HU on viral replication. HCT8 cells were infected with 2 pfu of G207 per cell. After adsorption of 1 hour at 37° C. inoculum was removed, cells were washed with PBS, and medium containing 10 nM FUdR or control medium without FUdR was added. At 8 hours pi, infected cells in presence and absence of FUdR were exposed to 1 mM HU. At 36 hours pi cells and supernatant were harvested and lysates were prepared by three cycles of freezing and thawing. Viral titers (A) and β-galactosidase activity (B) of the lysate were determined. All assays were performed in triplicates for each condition (avg ± SEM).
Vero cultures were carried for at least one subculture in E-MEM, 2 mM L-glutamine, 10% FCS. Cultures were plated at a density of 1×10^6 cells per well of 6-well plates and incubated at 37° C. in 5% CO2 in air in a humidified incubator. The following day, cultures were washed 2× with PBS, and serial dilutions of cell lysates (0.8 ml/well) were adsorbed onto triplicate dishes for 4 hours at 37° C. Cell lysates were prepared by 4 freeze-thaw cycles. Following adsorption, inoculum was removed, and cultures were overlaid with agar containing medium. Cultures were stained with neutral red 2 days post-inoculation, and plaque formation was assessed the next day.

[2] = system: β-galactosidase expression; assay: β-galactosidase activity (lacZ reporter gene in G207) in infected cells; format: cell-based; settings: HCT8, 2 pfu G207 per cell, 10 nM FUdR, 1 mM HU from 8 hours pi, 36 hours pi
Description: FIG. 2 depicts the results of experiments showing the influence of FUdR on β galactosidase expression following infection with G207. Cells (2×10^4) were plated in 24-well plates, and were infected with G207 at an MOI of 0.01 in presence (10 nM, oblique; 100 nM, black) and absence (white) of FUdR. At day 3 following infection, cells were lysed and total β-galactosidase activity of cell lysates was measured (A). Cell counts for each condition were determined in additional wells by trypan blue exclusion and specific activity was calculated by referring total activity to viable cell number (B). All assays were performed in triplicates (avg ± SEM). For lacZ staining 3×10^5 cells were plated onto 25 cm^2 flasks. Twelve hours later cells were infected with G207 in the presence and absence of FUdR under the same conditions as described above. At day 3 pi, cytospin slides were prepared and stained with X-gal for lacZ expression.
FIG. 4 depicts the results of experiments showing the effects of FUdR and HU on viral replication. […] Viral titers (A) and β-galactosidase activity (B) of the lysate were determined. […]
Activity of β-galactosidase was determined by monitoring the conversion of o-nitrophenyl galactoside (ONPG) to o-nitrophenol and galactose (β-Galactosidase Reporter Assay, Pierce, Rockford, Ill.). […] The reaction rate was determined by spectrophotometric measurement of o-nitrophenol at λ=405 nm. […]

## NC(=O)NO [HU, hydroxyurea]
[1]; 1 mM HU and 10 nM FUdR, 36 hours pi
  Viral titer, cells treated with HU and FUdR: 2.1±0.5×10^4 pfu
[1]; 1 mM HU from 8 hours pi, 36 hours pi
  Viral titer, cells treated with HU alone: 1.9±0.5×10^4 pfu
[1]; 1 mM HU, HCT8 cells
  Suppression of viral replication: 90%
[2]
  Effect on β-galactosidase expression: neither FUdR nor HU had significant effects

Reference: patent US20030228281A1, “Use of mutant herpes viruses and anticancer agents in the treatment of cancer” (priority 2000, published 2003)
